Legend:
[1] = target: bile salt export pump (BSEP) (Homo sapiens, UniProt O95342); assay: In vitro inhibition of BSEP activity; format: in vitro ADME
[2] = Clinical plasma concentration of tucatinib; format: in vivo; details: human, read-out: Mean clinical maximum observed concentration (Cmax)
[3] = Example 2 Part E: single- and multiple-dose PK of tucatinib and ONT-993; format: in vivo, human; details: tucatinib 300 mg BID, Day 14 vs Day 8
OAT2 = target: T1, OAT2 (Homo sapiens, UniProt Q9Y694); assay: Inhibition of OAT2 mediated transport of creatinine in transfected MDCK-II cells (Example 3); format: in vitro ADME; details: MDCK-II, read-out: Maximum inhibition of OAT2 mediated transport of creatinine
T1 construct: expressed in transfected cells; host or cells: MDCK-II
T1 sequence (Q9Y694 1-548): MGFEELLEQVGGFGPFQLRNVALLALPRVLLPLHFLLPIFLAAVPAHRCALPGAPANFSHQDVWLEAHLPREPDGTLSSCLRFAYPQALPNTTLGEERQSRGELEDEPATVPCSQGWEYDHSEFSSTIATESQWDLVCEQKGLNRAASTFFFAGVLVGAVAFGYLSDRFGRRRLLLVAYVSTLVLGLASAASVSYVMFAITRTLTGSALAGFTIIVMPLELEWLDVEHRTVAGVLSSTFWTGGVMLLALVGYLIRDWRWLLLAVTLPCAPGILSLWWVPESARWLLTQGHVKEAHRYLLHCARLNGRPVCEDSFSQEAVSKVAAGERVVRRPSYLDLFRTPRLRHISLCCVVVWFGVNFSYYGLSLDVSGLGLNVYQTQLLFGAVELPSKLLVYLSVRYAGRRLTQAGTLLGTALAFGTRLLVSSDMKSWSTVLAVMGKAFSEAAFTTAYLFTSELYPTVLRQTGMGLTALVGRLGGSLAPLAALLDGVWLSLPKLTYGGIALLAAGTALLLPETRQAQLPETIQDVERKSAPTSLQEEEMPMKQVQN
Method: (§1) Substrate dependent inhibition is common among transporters including MATE1 and MATE2-K. In this study, creatinine was used as the probe substrate to assess the inhibitory potency of Tucatinib and ONT-993. OAT2, OCT2, OCT3, MATE1, and MATE2-K are the renal transporters identified to transport creatinine. Tucatinib and its metabolite ONT-993 were tested as potential inhibitors of OAT2, OCT2, MATE1, and MATE2-K mediated transport using creatinine as a probe substrate.
(§2) For this study, MDCK-II were maintained in DMEM with low glucose and 10% FBS. Cells were seeded at 60K±10K cells/well on 96-well, transwell membrane plates approximately 24 hours before transfection. Transport assays were carried out approximately 48 hours after transfection. Cells were transfected and treated to express the transporter of interest or treated with a control vector. The transport of creatinine was determined by radiometric detection.
(§3) Net transporter mediated uptake of the substrate by each transporter was calculated as follows: Net Transporter Mediated Substrate Uptake (pmol/min/cm^2)=(Cellular accumulation in the presence of the transporter)−(Mean cellular accumulation in the absence of the transporter.
(§4) Percent inhibition was calculated as follows: Percent inhibition=100−(100*(transporter mediated uptake)with inhibition/(transporter mediated uptake)without inhibition) […]

OCT2 = target: T2, OCT2 (Homo sapiens, UniProt O15244); assay: Inhibition of OCT2 mediated transport of creatinine in transfected MDCK-II cells (Example 3); format: in vitro ADME; details: probe substrate creatinine, 0.03 to 10 μM
T2 construct: expressed in transfected cells; host or cells: MDCK-II
T2 sequence (O15244 1-555): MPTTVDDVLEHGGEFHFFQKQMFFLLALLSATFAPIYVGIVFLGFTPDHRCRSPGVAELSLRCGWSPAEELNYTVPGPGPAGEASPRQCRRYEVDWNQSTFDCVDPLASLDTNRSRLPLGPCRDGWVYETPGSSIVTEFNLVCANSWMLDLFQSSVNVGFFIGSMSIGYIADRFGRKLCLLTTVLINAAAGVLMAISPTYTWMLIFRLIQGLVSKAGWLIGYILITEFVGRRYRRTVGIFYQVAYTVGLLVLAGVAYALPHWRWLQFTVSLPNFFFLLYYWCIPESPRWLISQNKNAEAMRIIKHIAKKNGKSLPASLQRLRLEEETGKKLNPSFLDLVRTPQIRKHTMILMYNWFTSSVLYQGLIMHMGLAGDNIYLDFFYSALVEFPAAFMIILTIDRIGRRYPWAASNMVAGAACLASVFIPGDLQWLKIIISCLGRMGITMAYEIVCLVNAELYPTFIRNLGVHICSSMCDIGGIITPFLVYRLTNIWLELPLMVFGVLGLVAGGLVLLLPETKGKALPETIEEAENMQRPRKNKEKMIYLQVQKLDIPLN
Method: as §1, §2, §3, §4

Sequence of bile salt export pump (BSEP) (O95342 whole entry, species assumed): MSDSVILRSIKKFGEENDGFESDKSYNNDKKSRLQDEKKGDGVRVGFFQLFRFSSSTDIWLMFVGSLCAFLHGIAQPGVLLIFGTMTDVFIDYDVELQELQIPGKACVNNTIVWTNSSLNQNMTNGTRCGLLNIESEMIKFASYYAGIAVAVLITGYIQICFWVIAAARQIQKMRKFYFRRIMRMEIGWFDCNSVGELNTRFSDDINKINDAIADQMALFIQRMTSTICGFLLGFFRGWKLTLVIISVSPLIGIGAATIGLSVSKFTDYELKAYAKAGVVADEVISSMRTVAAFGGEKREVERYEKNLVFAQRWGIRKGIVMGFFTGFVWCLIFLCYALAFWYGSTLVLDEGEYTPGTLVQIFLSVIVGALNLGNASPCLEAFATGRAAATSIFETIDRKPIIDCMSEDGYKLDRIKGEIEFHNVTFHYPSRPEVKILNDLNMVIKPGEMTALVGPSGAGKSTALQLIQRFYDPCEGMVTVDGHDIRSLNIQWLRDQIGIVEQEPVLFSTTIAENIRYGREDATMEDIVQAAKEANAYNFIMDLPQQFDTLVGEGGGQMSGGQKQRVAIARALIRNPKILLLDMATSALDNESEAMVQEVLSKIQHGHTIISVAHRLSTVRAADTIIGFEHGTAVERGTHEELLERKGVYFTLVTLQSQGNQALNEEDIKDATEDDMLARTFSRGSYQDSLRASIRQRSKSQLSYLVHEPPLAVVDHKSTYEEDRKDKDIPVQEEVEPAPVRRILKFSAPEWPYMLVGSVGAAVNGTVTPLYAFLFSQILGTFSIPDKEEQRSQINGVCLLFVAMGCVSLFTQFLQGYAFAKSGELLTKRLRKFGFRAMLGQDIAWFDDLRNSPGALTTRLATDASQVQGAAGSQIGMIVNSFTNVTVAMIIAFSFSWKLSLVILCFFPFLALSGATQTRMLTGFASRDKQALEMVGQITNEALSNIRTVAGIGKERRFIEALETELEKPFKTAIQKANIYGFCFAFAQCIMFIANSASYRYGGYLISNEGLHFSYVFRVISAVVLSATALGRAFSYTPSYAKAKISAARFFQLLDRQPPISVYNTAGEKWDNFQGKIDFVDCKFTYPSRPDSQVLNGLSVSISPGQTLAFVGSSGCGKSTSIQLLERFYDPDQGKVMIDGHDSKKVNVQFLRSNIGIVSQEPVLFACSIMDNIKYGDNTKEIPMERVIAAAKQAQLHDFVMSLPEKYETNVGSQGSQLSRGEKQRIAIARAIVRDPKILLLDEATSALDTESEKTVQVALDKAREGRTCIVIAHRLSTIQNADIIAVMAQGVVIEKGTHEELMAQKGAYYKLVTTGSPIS

Cc1cc(Nc2ncnc3ccc(NC4=NC(C)(C)CO4)cc23)ccc1Oc1ccn2ncnc2c1 [tucatinib]
IC50 [1]: 8.48 µM | Cmax [2]: 1000 to 2000 nM | Rac (accumulation ratio) after multiple dosing [3]: 1.50 | inhibition at 10 µM (OAT2): 14.7% | IC50 (OCT2): 0.107 ± 0.0379 µM

Reference: patent US20220193076A1, “METHODS OF TREATING BREAST CANCER WITH TUCATINIB” (Seagen Inc., priority 2019, published 2022)
